Data: patent US4444782A, “2(4-tert.-Butyl-2,6-dichlorophenyl-imino)imidazolidine and use as an anti-hypertension agent” (SmithKline Beckman Corporation, priority 1982, dated 1984)
Counter-ions that a name gives are not always drawn. Like-named read-outs stand apart in the source and are kept apart here.

Columns and labels:
[1] = cited literature; cited from earlier work
[2] = target: alpha1 receptor (rabbit ear artery); experiment: isolated perfused rabbit ear artery (postjunctional alpha1 agonism); settings: for EC50: isolated perfused rabbit ear artery, read-out: ED50 Alpha1 Rabbit Ear Artery
Excerpt: Since the early work on clonidine, at least two types of vascular alpha receptor sites have been identified. A postjunctional, or postsynaptic, alpha1 receptor was initially reported. […] In the alpha test protocol in the isolated perfused rabbit ear artery described by J. P. Hieble et al., Arch.

[3] = potentiation of hexabarbitol induced sleep time (sedation); type: in vivo
normotensive rat = experiment: reduction of blood pressure in the normotensive rat model; type: in vivo; settings: for ED30: iv, read-out: EC30 for the reduction of blood pressure (hypotensive effect)
Protocol: In the normotensive rat model, the I.V. EC30 for the reduction of blood pressure was 9.8 μg/kg.

[4] = test system: alpha3 (vascular postjunctional alpha2) receptor, dog saphenous vein; settings: for α2/α3 Selectivity: ratio of ED50 guinea pig atrium to ED50 dog saphenous vein
Protocol: (§1) Another test system to assay for vascular postjunctional alpha2 stimulation utilizes the dog saphenous vein. This activity may be called alpha3 stimulation. The protocol for this test is as follows:
(§2) Mongrel dogs of either sex are anesthetized with sodium pentobarbital (50 mg/kg, i.p.). After the dog is anesthetized, the saphenous vein is located and cleaned of connective tissue, a 2-4 cm. segment is tied at both ends and removed. The venous segment is placed in a dish of cold Krebs solution and additional cleaning is performed to remove as much non-vascular tissue as possible. Ring segments (3-4 mm.) are then cut from the vessel.
(§3) The vessel is mounted in a superfusion chamber as known to the art for the rabbit ear artery except that the insert holding the venous ring has two parallel 0.5 mm tungsten wires separated by 2 mm. The tissue is slipped over these parallel wires and the insert attached to the main block. A third tungsten wire is then inserted through the ring and attached to a force-displacement transducer.
(§4) An initial tension of 4 gm is placed on the tissue, with tension being adjusted until a stable resting tension of 2 gm. is produced. Concentration-effect curves are determined as described in the publication referred to above for the ear artery segment.

[5] = target: T1, alpha3 (vascular postjunctional alpha2) receptor, dog saphenous vein (Canis lupus familiaris, UniProt A0A8I3Q7S8); settings: for relative potency, alpha3: dog saphenous vein, clonidine versus the compound of this invention
T1 construct: the saphenous vein is located and cleaned of connective tissue; from tissue; host or cells: saphenous vein rings of mongrel dogs
T1 sequence (A0A8I3Q7S8 1-427): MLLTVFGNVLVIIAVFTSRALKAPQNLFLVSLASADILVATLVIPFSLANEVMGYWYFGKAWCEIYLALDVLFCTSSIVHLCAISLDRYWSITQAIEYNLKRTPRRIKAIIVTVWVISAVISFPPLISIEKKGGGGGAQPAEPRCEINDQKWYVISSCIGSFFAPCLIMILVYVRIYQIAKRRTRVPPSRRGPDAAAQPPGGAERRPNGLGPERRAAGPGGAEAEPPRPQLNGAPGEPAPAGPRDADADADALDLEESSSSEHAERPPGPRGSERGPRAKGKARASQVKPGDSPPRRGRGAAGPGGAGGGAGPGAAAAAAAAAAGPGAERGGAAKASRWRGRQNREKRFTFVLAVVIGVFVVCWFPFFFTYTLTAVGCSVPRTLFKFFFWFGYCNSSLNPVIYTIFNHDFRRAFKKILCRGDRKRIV
Protocol: as §1, §2, §3, §4

[6] = target: T2, alpha2 receptor (guinea pig atrium) (Cavia porcellus, UniProt Q60474); experiment: isolated, superfused guinea pig left atrium (prejunctional alpha2 agonism)
T2 construct: isolated, superfused guinea pig left atrium; from tissue; host or cells: guinea pig left atrium (sympathetic nerve endings)
T2 sequence (Q60474 1-464): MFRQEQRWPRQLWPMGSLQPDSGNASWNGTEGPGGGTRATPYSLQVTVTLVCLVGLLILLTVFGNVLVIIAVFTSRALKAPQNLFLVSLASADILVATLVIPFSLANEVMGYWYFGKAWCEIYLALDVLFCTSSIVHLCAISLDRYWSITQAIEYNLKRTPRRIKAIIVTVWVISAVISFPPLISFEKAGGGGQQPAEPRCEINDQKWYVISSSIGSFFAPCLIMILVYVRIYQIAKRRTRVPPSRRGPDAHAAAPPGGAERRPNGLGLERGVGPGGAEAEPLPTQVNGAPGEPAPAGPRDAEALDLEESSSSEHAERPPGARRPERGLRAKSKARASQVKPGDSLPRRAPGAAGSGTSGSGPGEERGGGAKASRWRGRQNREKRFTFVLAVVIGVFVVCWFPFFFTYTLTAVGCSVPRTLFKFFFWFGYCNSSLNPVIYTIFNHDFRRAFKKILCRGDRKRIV
Excerpt: The second type of vascular alpha receptor site to be reported is located prejunctionally on sympathetic neurons and called alpha2 sites. The protocol employed for determining this activity is the isolated, superfused guinea pig left atrium described in the cited Hieble publication.

With `CCc1ccc(N=C2NCCN2)c(Cl)c1` [2-(2-Chloro-4-ethylphenylimino)-imidazolidine] as the compound, how does the “sedation, in words (literature)” value [1] read?
Its value is “very strong sedative or sleep inducer”.

Which results are given for `CC(C)(C)c1cc(Cl)c(N=C2NCCN2)c(Cl)c1` [COMPOUND I, 2-(4-tert.-butyl-2,6-dichlorophenylimino)imidazolidine]?
EC50 [2]: 30 nM; agonist potency relative to clonidine, alpha1 ([2]; rabbit ear artery, compared with clonidine): eight times more potent; ED50 ([3]; ip, read-out: ED50 for potentiation of hexabarbitol induced sedation): 260 µg/kg; sedative side effects, in words ([3]; summary statement): devoid of the sedative side effects; ED30 (normotensive rat; Rattus norvegicus): 9.8 µg/kg; selectivity for the postsynaptic receptor in vitro (fold) ([4]; post- versus presynaptic receptor, in vitro, Table A): 30; α2/α3 Selectivity [4]: 30; EC50 [5]: 26 nM; relative potency, alpha3 [5]: about equipotent; EC50 ([6]; isolated superfused guinea pig left atrium, read-out: ED50 Alpha2 Guinea Pig Atrium): 790 nM

Which EC50 [2] does the source give for `Clc1cccc(Cl)c1NC1=NCCN1` [CLONIDINE HYDROCHLORIDE] here?
The EC50 was 290 nM.

And the “α2/α3 Selectivity” value [4]?
The value was 1.

And the EC50 ([5]; dog saphenous vein ring, read-out: ED50 Alpha3 Dog Saphenous Vein)?
Its EC50 is 16 nM.

What about the EC50 [6] of the same compound?
The EC50 was 17 nM.

Which “marked sedation at a dose lower than the compound of this invention (times lower)” value ([3]; compared with the compound of this invention) does the source give for `Clc1cccc(Cl)c1N=C1NCCN1` [clonidine, 2-(2,6-dichlorophenylimino)-2-imidazolidine] here?
The value was about 30.

And the ED50 ([3]; iv, read-out: ED50 in the hexabarbitol sleep time assay)?
Its ED50 is 9.6 µg/kg.

What about the “hypotensive potency relative to the compound of this invention” value (normotensive rat; clonidine compared with the compound of this invention) of the same compound?
The value was “only slightly more potent”.

What about the ED30 (normotensive rat; normotensive rat, I.V.) of the same compound?
Its ED30 is 2.3 µg/kg.

And the “sedation, in words (literature)” value [1]?
The value was “heavy sedation”.

What about the “specificity between pre- and post-synaptic receptor subtypes, in words” value ([4]; in vitro, Table A) of the same compound?
Its value is “very little specificity”.

And the “α2/α3 Selectivity” value [4]?
The value was 1.

And the “relative potency, alpha3” value [5]?
Its value is “about equipotent”.

And the “activity relative to the compound of this invention, alpha2 (times as active)” value ([6]; guinea pig left atrium)?
Its value is 46.
